Experimental data from the NIST ThermoML archive (doi:10.1016/j.tca.2007.03.018).

Assay: molar heat capacity at saturation pressure
Conditions: Large sample (1 g) DSC

C1C2CC3CC1CC(C14CC5CC(CC(C5)C1)C4)(C2)C3 [1,1'-biadamantane]
Conditions	molar heat capacity [J/K/mol]
368.9 K, Crystal 2	422.5
372.5 K, Crystal 2	428.1
376.1 K, Crystal 2	435.3
379.7 K, Crystal 2	439.7
383.3 K, Crystal 2	443.1
386.9 K, Crystal 2	448.3
390.4 K, Crystal 2	452.1
394 K, Crystal 2	456.9
397.6 K, Crystal 2	460.5
401.2 K, Crystal 2	466.4
404.8 K, Crystal 2	471.7
408.4 K, Crystal 2	471.9
412 K, Crystal 2	478.1
415.6 K, Crystal 2	481.4
419.2 K, Crystal 2	490.8
422.8 K, Crystal 2	493.1
426.4 K, Crystal 2	496.1
430 K, Crystal 2	501.3
433.6 K, Crystal 2	507.8
437.1 K, Crystal 2	513
440.7 K, Crystal 2	519.9
444.3 K, Crystal 2	525
447.9 K, Crystal 2	529.9
451.5 K, Crystal 2	537.9
455.1 K, Crystal 2	544.8
458.7 K, Crystal 2	549.6
462.3 K, Crystal 2	556.8
465.9 K, Crystal 2	563.6
469.5 K, Crystal 2	572.6
473 K, Crystal 2	579.1
476.6 K, Crystal 2	584.1
480.2 K, Crystal 2	587.8
483.8 K, Crystal 2	600.3
487.4 K, Crystal 2	611.9
491 K, Crystal 2	607.2
494.6 K, Crystal 2	617.9
495.5 K, Crystal 2	621.1
496.4 K, Crystal 2	621.4
497.3 K, Crystal 2	621.7
498.1 K, Crystal 2	626.7
499 K, Crystal 2	629.7
499.9 K, Crystal 2	632.7
500.8 K, Crystal 2	635.2
501.7 K, Crystal 2	637.1
502.6 K, Crystal 2	636.9
503.5 K, Crystal 2	639
504.4 K, Crystal 2	644.5
505.3 K, Crystal 2	647.9
506.2 K, Crystal 2	659.8
507 K, Crystal 2	693.8
507.9 K, Crystal 2	741.7
508.7 K, Crystal 2	773.6
509.6 K, Crystal 1	792.3
510.6 K, Crystal 1	763.7
511.5 K, Crystal 1	724.5
512.4 K, Crystal 1	700.9
513.3 K, Crystal 1	684.2
514.2 K, Crystal 1	674.9
515.2 K, Crystal 1	668.9
516.1 K, Crystal 1	662.2
517 K, Crystal 1	655.5
517.9 K, Crystal 1	658.8
518.8 K, Crystal 1	647.2
519.7 K, Crystal 1	637.1
520.6 K, Crystal 1	640.5
522.4 K, Crystal 1	641.1
523.3 K, Crystal 1	647.5
524.2 K, Crystal 1	653.8
525.1 K, Crystal 1	653.9
526.8 K, Crystal 1	660.2
527.7 K, Crystal 1	653
528.6 K, Crystal 1	663.2
529.5 K, Crystal 1	664.4
530.4 K, Crystal 1	664.4
531.3 K, Crystal 1	663.3
532.2 K, Crystal 1	664.8
533.1 K, Crystal 1	667.8
534 K, Crystal 1	666.7
534.9 K, Crystal 1	674.5
535.8 K, Crystal 1	671
536.7 K, Crystal 1	671.7
537.6 K, Crystal 1	675
538.5 K, Crystal 1	681.1
539.4 K, Crystal 1	676.6
540.3 K, Crystal 1	677
543.1 K, Crystal 1	681.3
544.9 K, Crystal 1	692.5
546.7 K, Crystal 1	693.7
548.5 K, Crystal 1	702.1
550.3 K, Crystal 1	709.8
552.1 K, Crystal 1	724.2
553.9 K, Crystal 1	741
555.7 K, Crystal 1	752.9
557.4 K, Crystal 1	744.3
559.2 K, Crystal 1	772.6
561 K, Crystal 1	802.7
